Entries after “also recorded” stand apart in the source; their conditions may differ. Where two headings read alike, the source gives them in different places. Values belong to the compound of their own block, whether it stands above or below them.
Assays:
[1] = molecular target: T1, LXRα (Homo sapiens, UniProt Q13133); details: ligand alone, normalized to T0 (100%)
T1 sequence (Q13133 209-447 limits assumed): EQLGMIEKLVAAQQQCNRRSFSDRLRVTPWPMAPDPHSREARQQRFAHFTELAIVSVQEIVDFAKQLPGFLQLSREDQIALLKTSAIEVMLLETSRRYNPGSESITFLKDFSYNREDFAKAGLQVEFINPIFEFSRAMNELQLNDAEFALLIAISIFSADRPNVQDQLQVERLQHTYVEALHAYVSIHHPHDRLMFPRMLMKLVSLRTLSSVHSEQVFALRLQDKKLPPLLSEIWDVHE

[2] = test system: HepG2 cells; test: Cytotoxicity seen in HepG2 cell treatment; details: higher concentrations
[3] = molecular target: T2, LXRβ (Homo sapiens, UniProt P55055); details: for LXR isoform selectivity, SRC-1 recruitment: LXRβ versus LXRα
T2 sequence (P55055 222-460 limits assumed): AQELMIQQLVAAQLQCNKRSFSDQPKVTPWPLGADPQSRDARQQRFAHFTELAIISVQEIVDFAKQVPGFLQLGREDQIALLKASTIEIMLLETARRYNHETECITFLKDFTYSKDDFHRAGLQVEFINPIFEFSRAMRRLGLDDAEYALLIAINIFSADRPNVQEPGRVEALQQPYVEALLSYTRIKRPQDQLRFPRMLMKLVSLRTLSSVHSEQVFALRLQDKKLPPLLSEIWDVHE

[4] = po; cited from earlier work
[5] = molecular target: T1, LXRα; test: Corepressor (NCOR2, SMRT2) binding CRT, LXRα; details: absence of coactivator
[6] = test system: HepG2 cells
[7] = molecular target: T2, LXRβ; test: Corepressor (NCOR2, SMRT2) binding CRT, LXRβ; details: absence of coactivator
[8] = molecular target: T1, LXRα; design: NR-LBD with short coregulator peptides as used in the present work; purchased Thermo Fisher Scientific PV4657; method as in PMID 16354658; details: CRT; cited from earlier work
[9] = test system: cynomolgus monkeys; design: method as in PMID 16024916; details: cited from earlier work
[10] = test system: C57Bl/6 mice; design: method as in PMID 15145986; details: cited from earlier work
[11] = molecular target: PXR (Homo sapiens, UniProt O75469); test: Lanthascreen CRT, SRC1-4 recruitment to PXR; assay type: biochemical; details: SRC1-4 coactivator
[12] = test system: hamsters; design: method as in PMID 16024916; details: cited from earlier work
[13] = molecular target: T2, LXRβ; test: Multiplex precision CRT (pCRT), SRC1 and NCoR2, LXRβ; assay type: biochemical; design: NR-LBD with short coregulator peptides as used in the present work; purchased Thermo Fisher Scientific PV4660; details: isoform not given
[14] = molecular target: T1, LXRα; test: Multiplex precision CRT (pCRT), SRC1 and NCoR2, LXRα; assay type: biochemical; design: NR-LBD with short coregulator peptides as used in the present work; purchased Thermo Fisher Scientific PV4657; details: isoform not given
[15] = test system: HepG2 cells; design: method as in PMID 28087808; details: cited from earlier work

Chain of PXR (O75469 146-433 limits assumed): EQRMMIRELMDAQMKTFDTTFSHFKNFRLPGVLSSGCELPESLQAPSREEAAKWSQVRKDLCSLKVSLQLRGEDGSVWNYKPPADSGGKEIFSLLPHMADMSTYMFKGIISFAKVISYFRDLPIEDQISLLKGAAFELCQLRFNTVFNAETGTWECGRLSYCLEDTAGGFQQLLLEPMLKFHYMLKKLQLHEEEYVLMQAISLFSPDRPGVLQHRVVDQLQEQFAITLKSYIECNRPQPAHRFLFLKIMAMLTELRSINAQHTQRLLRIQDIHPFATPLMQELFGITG

SMILES: CC(C)C(O)CC[C@@H](C)[C@H]1CC[C@H]2[C@@H]3CC=C4C[C@@H](O)CC[C@]4(C)[C@H]3CC[C@]12C (stereo partly drawn) [24HC, 24-hydroxycholesterol]
SRC-1 recruitment to LXRα, efficacy relative to T0 [1]: partial agonist | Cytotoxicity [2]: cytotoxic at higher concentrations | LXR isoform selectivity, SRC-1 recruitment [3]: nonselective | SRC-1 recruitment to LXRβ, efficacy/potency relative to T0 ([3]; ligand alone, normalized to T0 (100%)): partial agonist

SMILES: CC(CCC(=O)N(C)C)C1CCC2C3CC=C4CC(O)CCC4(C)C3CCC12C (stereo not drawn) [DMHCA, N,N-dimethyl-3β-hydroxy-cholenamide]
Metabolic lability and oral bioavailability [4]: metabolically labile with poor oral bioavailability | SRC-1 recruitment to LXRα, efficacy relative to T0 [1]: partial agonist activity at LXRα | NCOR2 binding to LXRα, ligand effect [5]: little or no effect | Cytotoxicity [6]: cytotoxic at higher concentrations | LXR isoform selectivity, SRC-1 recruitment [3]: nonselective | NCOR2 binding to LXRβ, ligand effect [7]: little or no effect; also recorded: does not displace NCOR2 from LXRβ in the absence of SRC1

PXR agonism/binding in CRT [11]: no binding to PXR | Left-shift in the NCOR2 displacement curve, pCRT versus CRT [13]: 100 fold | Left-shift in the NCOR2 displacement curve, pCRT versus CRT [14]: 100 fold
SMILES: O=C(O)Cc1cccc(OCCCN(Cc2cccc(C(F)(F)F)c2Cl)CC(c2ccccc2)c2ccccc2)c1 [GW3965]
Concentration for weak recruitment of NCOR1 to LXRα [8]: > 1 µM | TG and LDL [9]: no effect on TG | Liver weight and TGs ([10]; 3 days treatment, GW3965 even at 100mg/kg/day): no effect on these liver markers | SREBP1c and FAS expression in the liver ([10]; 3 days treatment): minimal increases in SREBP1c and FAS expression in the liver | ABCA1 expression increase, peripheral macrophages ([10]; peripheral macrophages): 7 fold | ABCA1 expression increase, small intestine ([10]; small intestine): 8 fold | Plasma TG, LDL-C and VLDL-C [12]: dose-dependent increase

SMILES: CN(CC(=O)Nc1ccc(F)c(F)c1F)C(=O)c1ccc2c(c1)OCCO2 [IMB-808]
Lipogenicity in HepG2 cells [15]: nonlipogenic in HepG2 cells

Reference: publication doi:10.1101/2025.09.12.675753, “In search of nonlipogenic ABCA1 inducers (NLAI): precision coregulator TR-FRET identifies diverse signatures for LXR ligands” (bioRxiv, 2025)
